Measured values: the supplement of paper PMC13207355

How the values were obtained:
Settings in all cases: exposure time: 72 h
[1] = tested on: FT3469 (normal neural stem cell line); assay: surviving fraction (nuclei count normalised to DMSO); higher = more cells surviving (less toxic)
[2] = tested on: E28 (patient-derived glioblastoma stem cells of classical subtype); assay: as above
[3] = tested on: E57 (patient-derived glioblastoma stem cells of mesenchymal subtype); assay: as above
[4] = tested on: E21 (patient-derived glioblastoma stem cells of mesenchymal subtype); assay: as above
[5] = tested on: E34 (patient-derived glioblastoma stem cells of proneural subtype); assay: as above
[6] = tested on: E31 (patient-derived glioblastoma stem cells of proneural subtype); assay: as above
[7] = tested on: E13 (patient-derived glioblastoma stem cells of classical subtype); assay: as above
[8] = tested on: FT3469; assay: phenotypic distance (Euclidean, principal components) from DMSO controls (arbitrary units); higher = stronger morphological change
[9] = tested on: E28; assay: as above
[10] = tested on: E57; assay: as above
[11] = tested on: E21; assay: as above
[12] = tested on: E34; assay: as above
[13] = tested on: E31; assay: as above
[14] = tested on: E13; assay: as above
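Wherever phenotypic distance (Euclidean, principal components) from DMSO controls is given: cell Painting imaging in 384-well plates, CellProfiler features reduced to at least 20 principal components, Euclidean distance versus same-plate DMSO vehicle wells (0.1% v/v), median over six images per well.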
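Wherever surviving fraction (nuclei count normalised to DMSO) is given: nuclei counted by high-content imaging of Hoechst-stained cells in laminin-coated 384-well plates, relative to 0.1% DMSO vehicle wells, with staurosporine as cell-death control.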

CC(C)C[C@H](NC(=O)CNC(=O)c1cc(Cl)ccc1Cl)B1OC(=O)C(CC(=O)O)(CC(=O)O)O1 [MLN9708]
Settings | phenotypic distance | surviving fraction
[1], 4.1 nM | – | 0.412
[1], 12.3 nM | – | 0.492
[1], 37 nM | – | 0.439
[1], 111.1 nM | – | 0.445
[1], 333.3 nM | – | 0.306
[1], 1000 nM | – | 0.156
[1], 3000 nM | – | 0.212
[2], 4.1 nM | – | 0.244
[2], 12.3 nM | – | 0.239
[2], 37 nM | – | 0.158
[2], 111.1 nM | – | 0.0898
[2], 333.3 nM | – | 0.0988
[2], 1000 nM | – | 0.0719
[2], 3000 nM | – | 0.0719
[3], 4.1 nM | – | 0.0256
[3], 12.3 nM | – | 0.0162
[3], 37 nM | – | 0.011
[3], 111.1 nM | – | 0.00523
[3], 333.3 nM | – | 0.00523
[3], 1000 nM | – | 0.00366
[3], 3000 nM | – | 0.0105
[4], 4.1 nM | – | 0.0299
[4], 12.3 nM | – | 0.0187
[4], 37 nM | – | 0.0103
[4], 111.1 nM | – | 0.0103
[4], 333.3 nM | – | 0.0084
[4], 1000 nM | – | 0.00373
[4], 3000 nM | – | 0.000933
[5], 4.1 nM | – | 0.307
[5], 12.3 nM | – | 0.293
[5], 37 nM | – | 0.123
[5], 111.1 nM | – | 0.0439
[5], 333.3 nM | – | 0.064
[5], 1000 nM | – | 0.0421
[5], 3000 nM | – | 0.0549
[6], 4.1 nM | – | 0.082
[6], 12.3 nM | – | 0.0803
[6], 37 nM | – | 0.0151
[6], 111.1 nM | – | 0.00335
[6], 333.3 nM | – | 0.00669
[6], 1000 nM | – | 0.00335
[6], 3000 nM | – | 0.00669
[7], 4.1 nM | – | 0.0208
[7], 12.3 nM | – | 0.00954
[7], 37 nM | – | 0.0104
[7], 111.1 nM | – | 0.00174
[7], 333.3 nM | – | 0.00347
[7], 1000 nM | – | 0.00607
[7], 3000 nM | – | 0.000868
[8], 4.1 nM | 3.13 | –
[8], 12.3 nM | 3.57 | –
[8], 37 nM | 5.22 | –
[8], 111.1 nM | 6.65 | –
[8], 333.3 nM | 7.14 | –
[8], 1000 nM | 7.83 | –
[8], 3000 nM | 8.15 | –
[9], 4.1 nM | 3.84 | –
[9], 12.3 nM | 3.91 | –
[9], 37 nM | 4.06 | –
[9], 111.1 nM | 7.19 | –
[9], 333.3 nM | 5.5 | –
[9], 1000 nM | 5.6 | –
[9], 3000 nM | 6.86 | –
[10], 4.1 nM | 11.8 | –
[10], 12.3 nM | 12.3 | –
[10], 37 nM | 11.3 | –
[10], 111.1 nM | 10.8 | –
[10], 333.3 nM | 14.4 | –
[10], 1000 nM | 8.37 | –
[10], 3000 nM | 8.49 | –
[11], 4.1 nM | 7.66 | –
[11], 12.3 nM | 7.71 | –
[11], 37 nM | 11.9 | –
[11], 111.1 nM | 7.64 | –
[11], 333.3 nM | 11.8 | –
[11], 1000 nM | 11.7 | –
[11], 3000 nM | 15.7 | –
[12], 4.1 nM | 5.41 | –
[12], 12.3 nM | 6.29 | –
[12], 37 nM | 7.18 | –
[12], 111.1 nM | 10.9 | –
[12], 333.3 nM | 8.93 | –
[12], 1000 nM | 12.6 | –
[12], 3000 nM | 10.5 | –
[13], 4.1 nM | 5.67 | –
[13], 12.3 nM | 7.74 | –
[13], 37 nM | 9.26 | –
[13], 111.1 nM | 14.5 | –
[13], 333.3 nM | 11.4 | –
[13], 1000 nM | 13 | –
[13], 3000 nM | 12.3 | –
[14], 4.1 nM | 9.36 | –
[14], 12.3 nM | 9.93 | –
[14], 37 nM | 9 | –
[14], 111.1 nM | 12.2 | –
[14], 333.3 nM | 10.8 | –
[14], 1000 nM | 10.1 | –
[14], 3000 nM | 16.2 | –
